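Results reflect a 48-hour exposure of cells in 96-well plates to compound at five concentrations. TGI denotes the concentration required for complete inhibition of growth.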
Columns and labels:
Assay in all cases: DTP human tumour cell line panel, 48 h
KM12 colon = tested on: KM12 colon
K-562 leukemia = tested on: K-562 leukemia
SNB-19 CNS = tested on: SNB-19 CNS
HOP-92 NSCLC = tested on: HOP-92 NSCLC
SNB-75 CNS = tested on: SNB-75 CNS
U251 CNS = tested on: U251 CNS
SW-620 colon = tested on: SW-620 colon
MDA-N = tested on: MDA-N
SK-MEL-2 melanoma = tested on: SK-MEL-2 melanoma
ACHN renal = tested on: ACHN renal
SN12C renal = tested on: SN12C renal
HT29 colon = tested on: HT29 colon
M14 melanoma = tested on: M14 melanoma

Row | SMILES | TGI (KM12 colon) [µM] | TGI (K-562 leukemia) [µM] | TGI (SNB-19 CNS) [µM] | TGI (HOP-92 NSCLC) [µM] | TGI (SNB-75 CNS) [µM] | TGI (U251 CNS) [µM] | TGI (SW-620 colon) [µM] | TGI (MDA-N) [µM] | TGI (SK-MEL-2 melanoma) [µM] | TGI (ACHN renal) [µM] | TGI (SN12C renal) [µM] | TGI (HT29 colon) [µM] | TGI (M14 melanoma) [µM]
1 | CCOC(=O)/C=C(/C(=O)OCC)n1ccc(=O)n(Cc2cn(COCCOC(C)=O)nn2)c1=O | 35.9 | > 100 | > 100 | 5.04 | > 100 | 83.3 | 29 | > 100 | 64.4 | 28 | > 100 | 31.9 | 
2 | CCN(CC)C(=O)Cn1c(C)cc2ccccc21 | > 100 | > 100 | > 100 | > 100 | > 100 | > 100 | > 100 | > 100 | > 100 | > 100 | > 100 | > 100 | > 100
3 | COc1ccc2ccccc2c1/C=C/C(=O)c1ccccc1 | 8 | 6.28 | 12.4 | 6.97 | 4.01 | 4.98 | 6.53 | 13.4 | 3.64 | 11.1 | 11 | 12.4 | 9.62
4 | CCOc1cn(C2CC(O)C(CO)O2)c(=O)[nH]c1=O (stereo not given) | > 100 |  | > 100 | > 100 | > 100 | > 100 | > 100 | > 100 | > 100 | > 100 | > 100 | > 100 | > 100
5 | COC(CNC(=O)C(C)NC(=O)CCc1ccccc1)OC (stereo not given) | > 100 | > 100 | > 100 | > 100 | > 100 | > 100 | > 100 | > 100 | > 100 | > 100 | > 100 | > 100 | > 100
6 | CC12C(=O)CC(CC1=O)C2(C)C | > 100 | > 100 | > 100 | > 100 | > 100 |  | > 100 | > 100 | > 100 | > 100 | > 100 | > 100 | > 100
7 | CSc1ncnc2c1ncn2C1CC(Oc2ccc(C)cc2)C(COc2ccc(C)cc2)O1 (stereo not given) | > 100 |  | > 100 | > 100 | > 100 | > 100 | > 100 | > 100 | > 100 | > 100 | > 100 | > 100 | > 100
8 | Oc1c(CN2CCOCC2)ccc2cccnc12 | > 10 | > 10 | > 10 | > 10 | > 10 | > 10 | > 10 | > 10 | > 10 | > 10 | > 10 | > 10 | > 10
